Measured values published in patent US20100254914A1, “NANOWORMS FOR IN VIVO TUMOR TARGETING” (THE REGENTS OF THE UNIVERSITY OF CALIFORNIA, priority 2009, published 2010).
Values belong to the molecule of their own block, whether it stands above or below them. Bridge positions count the residues as written; N and C are the ends. Ends that are not written are not given here.

Columns and labels:
[1] = test system: C8161 tumors; test: In vivo temperature-induced tumor targeting of magnetic nanoworms, C8161; set-up: species or system mice; conditions: heated relative to unheated tumors
[2] = test system: C8161 cells; test: In vitro cellular fluorescence imaging with heating, C8161; assay type: cell-based; conditions: 20 min at 45° C. vs 37° C., then 2 hr at 37° C.
Description: (§1) In vitro cellular fluorescence imaging. The cells were treated with 80 ug Fe/mL of Cy5.5 labeled control NWs or LyP1NWs per well for 20 min at 37° C. or 45° C. in the presence of 10% FBS and incubated for an additional 2 hr at 37° C. in the presence of 10% FBS. The cells were then rinsed three times with cell medium, fixed, stained, and imaged by fluorescence microscopy.

[3] = test system: MDA-MB-435 tumors; test: In vivo temperature-induced tumor targeting of magnetic nanoworms, MDA-MB-435; set-up: species or system mice; conditions: 45° C. for 30 min, 24 hrs post-injection
Description: In vivo temperature-induced tumor targeting of magnetic nanoworms. Mice bearing bilateral MDA-MB-435 human carcinoma tumors were intravenously injected with Cy7-labeled LyP1NWs or NWs and one flank of the mouse (containing one of the tumors) was immediately heated at 45° C. for 30 min in a temperature-controlled water bath. At 24 hrs post-injection, the tissues were harvested and the Cy7 fluorescence in tissues were imaged using NIR fluorescence imaging system (LI-COR Odyssey).

[4] = test system: MDA-MB-435 cells; test: In vitro cellular fluorescence imaging with heating, MDA-MB-435; assay type: cell-based, human; conditions: 20 min at 45° C. vs 37° C., then 2 hr at 37° C.
Description: as §1

[5] = Hydrodynamic size by dynamic light scattering; assay type: physicochemical; conditions: Table 1
Text: The nanostructure appears as linearly aggregated IO cores with a mean hydrodynamic size (in the long dimension) of 65 nm (FIG. 1a and Table 2). When a higher molecular mass dextran (40 kDa) was used branched IO cores were obtained, with a larger average size (˜100 nm) and a broader size distribution (FIG. 5). […] NW show a slightly larger saturation magnetization value (74.2 emu/gFe vs. 61.5 emu/gFe and 53.5 emu/gFe) and a higher MR contrast (R2=116 mMFe^−1S^−1 vs R2=70 mMFe^−1S^−1 and R2=95 mMFe^−1S^−1) than NS and Feridex (FIG. 1b). […]
Blood half-life and biodistribution. To quantify the in vivo circulation times of NW or NS samples in Nude BALB/c mice (n=3-4 for each formulation), heparinized capillary tubes (Fisher) were used to draw 15 μL (for fluorescence) or 70 μl (for magnetization) of blood from the periorbital plexus at different times after intravenous injection of the NW or NS samples (1, 3, or 10 mg Fe/kg body mass). […] For Cy7-labeled NW or NS formulations, blood extracted at different times was imaged in a 96-well plate in Cy7 channel (762 nm excitation/800 nm emission) with a NIR fluorescence scanner (LI-COR biosciences, NE, USA). The images were analyzed using the ImageJ (NIH) or Osirix (Apple) programs. […] Organs and blood were immediately weighed, freeze-dried in gelatin capsules, and then analyzed for magnetization using SQUID.

[6] = test system: HT1080 tumors; test: In vivo tumor homing, HT1080 xenograft; set-up: species or system Nude BALB/c mice
Description: In vivo tumor homing. MDA-MB-435 human breast carcinoma cells or HT1080 human fibrosarcoma cells (1×10^6) were injected into the mammary fat pad or subcutaneously injected into Nude BALB/c mice, respectively. Tumors were used when they reached ˜0.5 cm in size. Some 0.2 cm or 1 cm tumors were used to compare the dependence of tumor size on NW homing. Cy7-labed or non-labeled NW or NS were intravenously injected into mice (n=3˜8 for each formulation) with a dose of 1 mg Fe/kg body mass (for fluorescence studies) and 3 mg Fe/kg body mass (for magnetization studies). For real-time observation of tumor/liver uptake, animals were imaged under anesthesia in Cy7 channel using the BonSai fluorescence-imaging system (Siemens, Pa., USA) 6 hrs, 24 hrs or 48 hrs after injection. For NIR fluorescence imaging of organs, animals were sacrificed 24 hrs after the injection by cardiac perfusion with PBS under anesthesia, and organs were dissected and imaged in Cy7 channel with a NIR fluorescence scanner (LI-COR biosciences, NE, USA). All the NIR images for animals or organs were taken at the same exposure time. To quantify the amount of NW or NS homing, collected tumors were weighed, freeze-dried in gelatin capsules, and then analyzed for magnetization using SQUID. […] At least three images from representative microscopic fields were analyzed for each tumor sample.

[7] = test system: MDA-MB-435 tumors; test: In vivo tumor homing, MDA-MB-435 xenograft; set-up: species or system Nude BALB/c mice; conditions: for tumor uptake / targeting efficiency: 24 hrs post-injection
Description: In vivo tumor homing. MDA-MB-435 human breast carcinoma cells or HT1080 human fibrosarcoma cells (1×10^6) were injected into the mammary fat pad or subcutaneously injected into Nude BALB/c mice, respectively. Tumors were used when they reached ˜0.5 cm in size. Some 0.2 cm or 1 cm tumors were used to compare the dependence of tumor size on NW homing. Cy7-labed or non-labeled NW or NS were intravenously injected into mice (n=3˜8 for each formulation) with a dose of 1 mg Fe/kg body mass (for fluorescence studies) and 3 mg Fe/kg body mass (for magnetization studies). For real-time observation of tumor/liver uptake, animals were imaged under anesthesia in Cy7 channel using the BonSai fluorescence-imaging system (Siemens, Pa., USA) 6 hrs, 24 hrs or 48 hrs after injection. For NIR fluorescence imaging of organs, animals were sacrificed 24 hrs after the injection by cardiac perfusion with PBS under anesthesia, and organs were dissected and imaged in Cy7 channel with a NIR fluorescence scanner (LI-COR biosciences, NE, USA). All the NIR images for animals or organs were taken at the same exposure time. To quantify the amount of NW or NS homing, collected tumors were weighed, freeze-dried in gelatin capsules, and then analyzed for magnetization using SQUID. For histologic analysis, frozen sections of tumors were prepared. The sections were fixed with 4% paraformaldehyde and stained with DAPI for observation of NW or NS only. The rat anti-mouse CD-31 (1:50, BD PharMingen) and biotinylated mouse fibrin(ogen) antiserum (1:50, Nordic) were used for immunochemicostaining of tumor tissue sections. The corresponding secondary antibodies were added and incubated for 1 hour at room temperature: AlexaFluor-594 goat anti-rat or rabbit IgG (1:1,000; Molecular Probes), streptavidin Alexa Fluor 594 (1:1000; Molecular Probes). The slides were washed three times with PBS and mounted in Vectashield Mounting Medium with DAPI. At least three images from representative microscopic fields were analyzed for each tumor sample.

[8] = molecular target: T1, p32 or gC1qR receptor (human, UniProt Q07021 74-282); test: fluorescence microscopy of MDA-MB-435 cells, colocalization with anti-p32 stain
T1 construct: whole, on cells; Endogenous p32 on MDA-MB-435 cells and tumors, stained with an anti-p32 antibody; also called p32 receptors
T1 sequence (looked up): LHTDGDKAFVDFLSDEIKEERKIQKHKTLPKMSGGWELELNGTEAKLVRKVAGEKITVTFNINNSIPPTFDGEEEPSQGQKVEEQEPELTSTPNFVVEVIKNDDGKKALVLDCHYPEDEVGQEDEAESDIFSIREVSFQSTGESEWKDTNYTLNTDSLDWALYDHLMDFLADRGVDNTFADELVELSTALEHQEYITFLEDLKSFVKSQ

[9] = compared with the other samples

Molecule: LyP1NWs: LyP-1 peptide attached to Cy5.5-labeled aminated NWs via PEG crosslinker, ~40 peptides per nanoworm (CGNKRTRGC; disulfide 1-9 (inferred); not fully specified; printed as Cys-Gly-Asn-Lys-Arg-Thr-Arg-Gly-Cys; also: extra Cys added for conjugation, position not given here)
homing to heated tumors [1]: not significantly different
binding and internalization upon heating [2]: lower heat-mediated internalization
targeting to heated tumors [3]: prominent relative to unheated tumors
binding and internalization upon heating [4]: Significant quantities

Molecule: NW-P175-C: NW with 175 amines to which CREKA is conjugated through a PEG spacer, 60 peptides (not fully specified; also: CREKA conjugated through PEG spacer to nanoworm with 175 amines, 60 peptides (attachment site not given here))
Size [nm] (mean hydrodynamic size) [5]: 85.0 nm
tumor uptake / targeting efficiency ([6]; 24 hrs post-injection): best
tumor:liver ratio (NIR fluorescence) [6, 9]: significant increases
tumor uptake / targeting efficiency [7]: significantly higher levels of uptake
tumor uptake / targeting efficiency ([7]; listed as NW-P-175-C): best
tumor:liver ratio (NIR fluorescence) [7, 9]: significant increases

Molecule: NW-P-C: PEGylated CREKA-conjugated NW (family; ~60 CREKA peptides in the comparison) (not fully specified; also: CREKA conjugated via PEG to nanoworms (attachment site not given here))
tumor uptake / targeting efficiency [7]: significantly greater

binding result [8]: binds
B1: LyP-1 peptide-conjugated magnetic nanoworms (LyP1NWs) (peptide)
peptide: CGNKRTRGC
modifications: disulfide 1-9 (inferred); not fully specified; printed as Cys-Gly-Asn-Lys-Arg-Thr-Arg-Gly-Cys; also: peptide is cyclic, conjugated via PEG crosslinker to Cy5.5-labeled dextran iron oxide nanoworm, extra Cys added for conjugation, position not given here
notes: also called Lyp1-conjugated Cy5.5-labeled magnetic nanoworms; LyP1-conjugated NWs
